{
  "source": "ChEMBL document CHEMBL5365522",
  "about": "“Discovery of potential novel TRPC5 inhibitors by virtual screening and bioassay” (Bioorg Med Chem, 2023)",
  "key": {"[1]": {"target": "T1, Short transient receptor potential channel 5 (Homo sapiens) (UniProt Q9UL62)", "T1 sequence (whole entry)": "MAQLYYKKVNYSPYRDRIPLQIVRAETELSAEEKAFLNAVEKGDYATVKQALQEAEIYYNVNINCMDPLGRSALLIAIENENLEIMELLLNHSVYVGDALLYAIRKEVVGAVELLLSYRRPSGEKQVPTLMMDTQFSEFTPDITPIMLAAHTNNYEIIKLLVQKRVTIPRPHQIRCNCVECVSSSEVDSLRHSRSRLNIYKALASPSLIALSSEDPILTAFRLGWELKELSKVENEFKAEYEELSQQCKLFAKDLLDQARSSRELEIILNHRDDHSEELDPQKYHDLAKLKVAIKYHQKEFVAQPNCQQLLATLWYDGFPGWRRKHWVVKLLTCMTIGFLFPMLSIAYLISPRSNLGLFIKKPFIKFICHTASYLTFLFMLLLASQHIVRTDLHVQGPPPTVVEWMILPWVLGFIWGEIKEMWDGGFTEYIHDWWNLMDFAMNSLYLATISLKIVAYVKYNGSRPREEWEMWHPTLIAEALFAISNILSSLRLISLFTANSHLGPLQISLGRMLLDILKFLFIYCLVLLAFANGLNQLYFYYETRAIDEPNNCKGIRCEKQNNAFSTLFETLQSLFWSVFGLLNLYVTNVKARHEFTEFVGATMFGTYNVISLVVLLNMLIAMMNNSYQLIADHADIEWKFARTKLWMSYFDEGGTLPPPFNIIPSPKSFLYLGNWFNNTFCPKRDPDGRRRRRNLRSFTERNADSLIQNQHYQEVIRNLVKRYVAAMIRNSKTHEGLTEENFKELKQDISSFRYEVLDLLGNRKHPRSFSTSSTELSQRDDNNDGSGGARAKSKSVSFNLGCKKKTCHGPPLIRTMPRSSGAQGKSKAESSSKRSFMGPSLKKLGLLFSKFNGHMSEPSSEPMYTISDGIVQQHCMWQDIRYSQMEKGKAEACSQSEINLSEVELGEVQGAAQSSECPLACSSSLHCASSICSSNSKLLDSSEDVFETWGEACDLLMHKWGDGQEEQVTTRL", "assay": "Inhibition of human TRPC5 expressed in HEK293T cells assessed as intracellular calcium influx at 30 uM measured after 30 mins by Fluo-4 AM dye based fluorescence analysis", "type": "cell-based"}, "[2]": {"test_system": "HEK-293T", "assay": "Cytotoxicity against human HEK293T cells expressing human TRPC5 assessed as reduction in cell viability at 100 uM incubated for 24 hrs by MTS assay", "type": "toxicity, cell-based"}, "[3]": {"target": "T2, Short transient receptor potential channel 5 (Homo sapiens, UniProt Q9UL62)", "T2 sequence (Q9UL62 whole entry)": "T1 sequence (whole entry)", "assay": "Inhibition of human TRPC5 expressed in HEK293T cells assessed as intracellular calcium influx by measuring Ca2+ flow inhibition after 30 mins by Fluo-4 AM dye based fluorescence analysis", "type": "cell-based"}, "[4]": {"test_system": "HEK-293T", "assay": "Cytotoxicity against human HEK293T cells expressing human TRPC5 assessed as cell death incubated for 24 hrs by MTS assay", "type": "toxicity, cell-based"}},
  "note": "Activity calls are given as the source filed them. The calls are words filed in the database; no cut-off is given here.",
  "data": [
    {"smiles": "O=C(Cc1cccc(F)c1)NCc1nnc2ccc(-c3ccc(F)cc3)nn12", "values": [
      {"measurement": "inhibition", "setting": "[1]", "result": "Active"},
      {"measurement": "Activity", "setting": "[2]", "result": "Non-Toxic"},
      {"measurement": "IC50", "setting": "[3]", "result": 10.2, "unit": "µM"}
    ]},
    {"smiles": "CC(c1ccccc1)n1c(CCCO)nc2ccccc21", "note": "(stereo unspecified)", "values": [
      {"measurement": "Activity", "setting": "[4]", "result": "Toxic"},
      {"measurement": "inhibition", "setting": "[1]", "result": "Active"}
    ]},
    {"smiles": "c1ccc(Cn2c(NCc3ccco3)nc3ccccc32)cc1", "values": [
      {"measurement": "IC50", "setting": "[3]", "result": 14.9, "unit": "µM"}
    ]}
  ]
}
